This is an account of results in DBAASP.

Experiment in all cases: ≥ marks a high value that may be exact or a test limit, other limits are often not marked, values filed in µg/mL are converted to µM
Assay [1] has as its system Candida albicans ATCC 10231.
The test system of assay [2] is Escherichia coli ATCC 25922.
Assay [3] deals with Pseudomonas aeruginosa ATCC 9027.
The subject of assay [4] is Acinetobacter baumannii ATCC 19606.
For assay [5], the system named is Enterococcus faecalis ATCC 29212.
Assay [6] has as its system Staphylococcus aureus ATCC 29213.
The test system of assay [7] is Pseudomonas aeruginosa ATCC 27853.
Assay [8] concerns Staphylococcus aureus ATCC 25923.
Assay [9] concerns Candida albicans ATCC 90028.
Assay [10] deals with Escherichia coli.
Assay [11] concerns Pseudomonas aeruginosa.
Assay [12] has as its system Staphylococcus aureus.
Assay [13] deals with Acinetobacter baumannii.
The test system of assay [14] is Klebsiella pneumoniae ATCC 700603.
Assay [15] relates to Bacillus subtilis.
The subject of assay [16] is Candida albicans ATCC 2002.
Assay [17] deals with Staphylococcus epidermidis.

≈ marks a conversion by molar mass, not a printed value. Where “and” joins values, the source holds several entries; their conditions need not be identical. Equal entries are not always repeated. A value given as a limit tells only on which side of the number the result lay.

As a reminder, the MIC is the lowest concentration found to suppress growth. Read a high MIC as weaker potency. In the case of `N[C@@H](CC(=O)O)C(=O)N[C@@H](Cc1ccc(O)cc1)C(=O)N[C@@H](CC(=O)O)C(=O)N[C@@H](CC(=O)O)C(=O)O` [DYDD], the MIC in assay [1] stood at 8580 µM (≈ 4520 µg/mL); in [2], 34300 µM (≈ 18100 µg/mL); in assay [3] it was 17200 µM (≈ 9040 µg/mL).

As for `CC(C)C[C@H](NC(=O)[C@H](CCCCN)NC(=O)CNC(=O)[C@H](CC(C)C)NC(=O)[C@H](CC(C)C)NC(=O)[C@H](C)NC(=O)[C@H](CC(N)=O)NC(=O)[C@H](CC(C)C)NC(=O)[C@H](C)NC(=O)[C@H](CCC(N)=O)NC(=O)CNC(=O)[C@@H](NC(=O)[C@H](Cc1ccccc1)NC(=O)CNC(=O)[C@H](CC(C)C)NC(=O)[C@@H](N)Cc1ccccc1)C(C)C)C(N)=O` [FLGFVGQALNALLGKL], the MIC in [4] was > 64 µM; in assay [5], > 64 µM; in [2], > 64 µM; in [6], 32 µM (≈ 53.1 µg/mL).

As to `CC(C)C[C@H](NC(=O)[C@H](CC(C)C)NC(=O)[C@H](CCCCN)NC(=O)[C@H](CCCCN)NC(=O)[C@H](CC(C)C)NC(=O)[C@H](CCC(N)=O)NC(=O)[C@H](CCCCN)NC(=O)[C@H](CC(C)C)NC(=O)[C@@H](N)Cc1ccccc1)C(N)=O` [FLKQLKKLL], the MIC is > 113 µM in assay [4], 56.6 µM (≈ 63.9 µg/mL) in assay [2], 7.08 µM (≈ 7.99 µg/mL) in assay [7] and 113 µM (≈ 128 µg/mL) in [8].

Consider `CC(C)C[C@H](NC(=O)[C@H](CC(C)C)NC(=O)[C@H](CCCCN)NC(=O)[C@H](CCCCN)NC(=O)[C@H](CC(C)C)NC(=O)[C@H](Cc1ccc(O)cc1)NC(=O)[C@H](CCCCN)NC(=O)[C@H](CC(C)C)NC(=O)[C@@H](N)Cc1ccccc1)C(N)=O` [FLKYLKKLL], for which the MIC is 13.7 µM and 27.5 µM in [4]; 13.7 µM and 27.5 µM in assay [2].

As for `CC[C@H](C)[C@H](NC(=O)[C@@H]1CCCN1C(=O)[C@H](CC(C)C)NC(=O)[C@@H](N)Cc1ccccc1)C(=O)N[C@@H](CC(C)C)C(=O)NCC(=O)N[C@@H](CCCCN)C(=O)N[C@@H](CC(C)C)C(=O)N[C@@H](CC(C)C)C(=O)N[C@@H](CO)C(=O)NCC(=O)N[C@@H](CC(C)C)C(=O)N[C@@H](CC(C)C)C(N)=O` [FLPILGKLLSGLL], the MIC in assay [9] was ≥ 80 µM; in [2], > 160 µM; in [8] it was 10 µM (≈ 13.8 µg/mL).

On to `CC[C@H](C)[C@H](NC(=O)CN)C(=O)NCC(=O)N[C@@H](CCCCN)C(=O)N[C@@H](Cc1ccccc1)C(=O)N[C@H](C(=O)N[C@@H](Cc1cnc[nH]1)C(=O)N[C@@H](C)C(=O)N[C@@H](C)C(=O)N[C@@H](CCCCN)C(=O)N[C@@H](CCCCN)C(=O)N[C@@H](Cc1ccccc1)C(=O)NCC(=O)N[C@@H](CCCCN)C(=O)N[C@@H](CC(C)C)C(=O)N[C@@H](Cc1ccccc1)C(=O)N[C@H](C(=O)NCC(=O)N[C@@H](CCC(=O)O)C(=O)N[C@H](C(=O)N[C@@H](CCSC)C(=O)N[C@@H](CC(N)=O)C(=O)N[C@@H](CO)C(N)=O)[C@@H](C)CC)[C@@H](C)CC)[C@@H](C)CC` [GIGKFIHAAKKFGKLFIGEIMNS], for which the MIC in [10] was determined as 2.4 µM (≈ 6.01 µg/mL); in assay [11], 23.1 µM (≈ 57.8 µg/mL); in [12], 9.6 µM (≈ 24.1 µg/mL).

In the case of `CC[C@H](C)[C@H](N)C(=O)N[C@@H](CC(C)C)C(=O)N[C@@H](CCCCN)C(=O)N1CCC[C@H]1C(=O)N[C@@H](CCCCN)C(=O)N[C@@H](CC(C)C)C(=O)N[C@@H](Cc1c[nH]c2ccccc12)C(=O)N[C@@H](CCCCN)C(=O)N[C@@H](CC(C)C)C(=O)N[C@H](C(=O)N[C@H](C(=O)N[C@H](C(=O)N[C@@H](C)C(=O)N[C@@H](CCCN=C(N)N)C(=O)N[C@@H](CCCCN)C(=O)N[C@H](C(=O)N[C@H](C(=O)N[C@@H](CCCCN)C(=O)O)[C@@H](C)CC)[C@@H](C)CC)C(C)C)C(C)C)[C@@H](C)O` [ILKPKLWKLTVVARKIIK], the MIC is ≥ 64 µM in assay [13]; 64 µM (≈ 137 µg/mL) in [2]; > 64 µM in [14]; 64 µM (≈ 137 µg/mL) in [3]; > 64 µM in [8].

With `CC[C@H](C)[C@H](N)C(=O)N[C@@H](CC(N)=O)C(=O)N[C@@H](Cc1c[nH]c2ccccc12)C(=O)N[C@@H](CCCCN)C(=O)N[C@@H](CCCCN)C(=O)NCC(=O)N[C@@H](CCCCN)C(=O)N[C@@H](CCC(=O)O)C(=O)N[C@H](C(=O)N[C@@H](CC(C)C)C(=O)N[C@@H](CCCCN)C(=O)N[C@@H](C)C(=O)N[C@@H](CC(C)C)C(N)=O)C(C)C` [INWKKGKEVLKAL], the MIC in assay [15] is ≥ 100 µM; in assay [10], > 100 µM.

Consider `CC[C@H](C)[C@H](NC(C)=O)C(=O)N[C@@H](CC(N)=O)C(=O)N[C@@H](Cc1c[nH]c2ccccc12)C(=O)N[C@@H](CC(C)C)C(=O)N[C@@H](CCCCN)C(=O)N[C@@H](CC(C)C)C(=O)NCC(=O)N[C@@H](CCCCN)C(=O)N[C@@H](CCCCN)C(=O)N[C@@H](CC(C)C)C(=O)N[C@@H](CC(C)C)C(=O)N[C@@H](CO)C(=O)N[C@@H](C)C(=O)N[C@@H](CC(C)C)C(N)=O` [INWLKLGKKLLSAL], for which the MIC in [15] is 25 µM (≈ 41 µg/mL); in assay [10], > 100 µM.

Take `CC[C@H](C)[C@H](N)C(=O)N[C@@H](CC(N)=O)C(=O)N[C@@H](Cc1c[nH]c2ccccc12)C(=O)N[C@@H](CO)C(=O)N[C@@H](CO)C(=O)N[C@H](C(=O)N[C@@H](Cc1ccccc1)C(=O)N[C@@H](CCC(=O)O)C(=O)N[C@@H](CCCCN)C(=O)N[C@H](C(=O)N[C@@H](CCCCN)C(=O)N[C@@H](CC(N)=O)C(=O)N[C@@H](CC(C)C)C(=O)N[C@H](C(N)=O)C(C)C)C(C)C)[C@@H](C)CC` [INWSSIFEKVKNLV]: the MIC in assay [15] is ≥ 40 µM; in assay [10] it was 35 µM (≈ 58.7 µg/mL).

In assay [11], `CC[C@H](C)[C@H](NC(=O)[C@H](Cc1ccccc1)NC(=O)[C@H](CO)NC(=O)[C@H](CCCCN)NC(=O)[C@H](Cc1c[nH]c2ccccc12)NC(=O)[C@@H](N)CCCCN)C(=O)N[C@@H](CCCCN)C(=O)N[C@@H](CCCCN)C(=O)N[C@@H](CC(C)C)C(=O)N[C@H](C(=O)N[C@@H](CO)C(=O)N[C@@H](CCCCN)C(=O)N[C@@H](Cc1ccccc1)C(=O)N[C@@H](CC(C)C)C(=O)N[C@@H](Cc1cnc[nH]1)C(=O)N[C@@H](CO)C(=O)N[C@@H](C)C(=O)N[C@@H](CC(=O)O)C(=O)N[C@@H](CCCCN)C(=O)N[C@@H](Cc1ccccc1)C(N)=O)[C@@H](C)O` [KWKSFIKKLTSKFLHSADKF] had an MIC of 10.2 µM (≈ 25 µg/mL).

For the compound `CC[C@H](C)[C@H](NC(=O)[C@H](CCCN=C(N)N)NC(=O)[C@H](CC(C)C)NC(=O)[C@@H](NC(=O)[C@H](Cc1ccccc1)NC(=O)[C@H](CCCN=C(N)N)NC(=O)[C@H](C)NC(=O)[C@@H](N)CC(C)C)C(C)C)C(=O)N[C@@H](CC(C)C)C(=O)N[C@@H](CCCCN)C(=O)N[C@@H](Cc1ccc(O)cc1)C(=O)NCC(=O)N[C@@H](Cc1ccccc1)C(=O)N[C@@H](CCCCN)C(=O)O` [LARFVLRILKYGFK], the MIC in assay [13] was 8 µM (≈ 13.8 µg/mL); in [2], 64 µM (≈ 110 µg/mL); in assay [14], 64 µM (≈ 110 µg/mL); in assay [3], 64 µM (≈ 110 µg/mL); in [8], 32 µM (≈ 55.2 µg/mL).

In the case of `CC[C@H](C)[C@H](NC(=O)[C@@H](NC(=O)[C@H](CO)NC(=O)[C@@H]1CCCN1C(=O)[C@@H](NC(=O)[C@@H](NC(=O)[C@H](CO)NC(=O)[C@H](CO)NC(=O)[C@H](CC(C)C)NC(=O)[C@H](C)NC(=O)[C@H](CO)NC(=O)[C@H](CC(C)C)NC(=O)[C@H](C)NC(=O)[C@H](C)NC(=O)CNC(=O)[C@H](CC(C)C)NC(=O)[C@@H](N)CC(C)C)C(C)C)[C@@H](C)CC)C(C)C)C(=O)N[C@@H](CO)C(=O)N[C@@H](Cc1c[nH]c2ccccc12)C(=O)N[C@@H](Cc1ccccc1)C(=O)N[C@@H](CCC(N)=O)C(=O)N[C@@H](CCCCN)C(N)=O` [LLGAALSALSSVIPSVISWFQK], the MIC in assay [4] was 32 µM (≈ 73.2 µg/mL); in assay [5], 16 µM (≈ 36.6 µg/mL); in assay [2], > 64 µM; in assay [6], 4 µM (≈ 9.15 µg/mL); in assay [12] it was 8 µM (≈ 18.3 µg/mL).

Consider `CC[C@H](C)[C@H](NC(=O)[C@@H](NC(=O)[C@@H](NC(=O)[C@@H]1CCCN1C(=O)[C@H](Cc1c[nH]c2ccccc12)NC(=O)[C@H](Cc1ccccc1)NC(=O)[C@H](CCCN=C(N)N)NC(=O)[C@H](CCCCN)NC(=O)[C@@H](NC(=O)[C@@H](N)CCCN=C(N)N)[C@@H](C)CC)C(C)C)C(C)C)C(=O)N[C@@H](CCCN=C(N)N)C(=O)N[C@H](C(=O)N[C@H](C(=O)N[C@H](C(=O)N[C@@H](C)C(=O)NCC(=O)N[C@@H](Cc1ccc(O)cc1)C(=O)N[C@@H](CC(N)=O)C(=O)N[C@@H](CC(C)C)C(=O)O)C(C)C)C(C)C)[C@@H](C)O` [RIKRFWPVVIRTVVAGYNL], for which the values for the MIC in assay [16] and in assay [2] were ≥ 32.8 µM and 87.4 µM (≈ 200 µg/mL), respectively.

As to `CC[C@H](C)[C@H](NC(=O)[C@H](CO)NC(=O)[C@@H](NC(=O)[C@H](CCCCN)NC(=O)[C@H](Cc1ccccc1)NC(=O)[C@@H]1CCCN1C(=O)[C@@H](N)[C@@H](C)O)[C@@H](C)CC)C(=O)N[C@@H](Cc1cnc[nH]1)C(=O)N[C@@H](CC(C)C)C(=O)NCC(=O)NCC(=O)N[C@@H](Cc1ccc(O)cc1)C(N)=O` [TPFKISIHLGGY], the MIC in assay [17] is ≥ 150 µM.
